{"source": "patent US4513008A", "about": "“Virucidal compositions and therapy” (The Vinoxen Company, Inc., priority 1982, dated 1985)", "key": {"HSV-2 [1]": {"test_system": "HSV-2", "test": "In vivo mouse bioassay: intravaginal HSV-2 infection, topical treatment", "parameters": "species or system HSV-2 strain 333 in female Swiss Webster mice; key to Max. Lesion Score: 0: no clinical signs of vaginal infection; ±: slight perivaginal redness; perivaginal redness and swelling of 1-2 mm; perivaginal redness and swelling of 2-3 mm; perivaginal and perianal redness and swelling of 3-4 mm; perivaginal and perianal redness and swelling of 4 mm or more, with exudate", "conditions": "for # Infected, Day 14 / # of Deaths, Day 14: 10 animals/group"}, "[2]": {"test": "Visually observed solubility in DMSO-HBSS", "format": "physicochemical", "conditions": "1 mg in 1 ml of 70% DMSO-30% HBSS", "experimental": "Vehicles. […] The DMSO-HBSS vehicle was selected based on the observed (visually) solubility of DHA in various DMSO-HBSS solutions. 1 mg DHA was soluble in 1 ml of 70% DMSO-30% HBSS."}, "[3]": {"test_system": "herpes simplex virus type 2 (HSV-2)", "test": "In vitro HSV-2 bioassay: virucidal plaque assay (HEP-2 cells)", "format": "cell-based, HSV-2 strain 333", "conditions": "for plaque count / titer: Table 3", "experimental": "Evidence of the efficacy of the virucides of the invention in vitro has been obtained from bioassay using HSV-2, using a standard assay procedure. Serial dilutions of the compounds were tested for their ability to prevent plaque formation by a stock virus suspension. Reduction of plaque titer by test compounds as compared to mock treated controls was indicative of virucidal activity. […] These represent the upper limit for the drug concentration, since dilutions were not carried beyond 1:6400 and in some cases 1:12800.\nCell Culture. Cell cultures used for the propagation and titration of HSV-2 were the human diploid lung embryonic line MRC-5 and the human malignant epitheloid cell line HEP-2 respectively. Stock monolayer cultures of both cell lines were propagated in Dulbecco's Modified Eagle's medium (DME) supplemented with 10% (V/V) calf serum. Spinner cultures for mass production of HEP-2 cells were grown in Joklik's medium supplemented with 10% (V/V) calf serum and 1% (W/V) pluronic acid. Monolayer cultures of HEP-2 cells for plaque or virucidal assay were seeded into 60 mm dishes in DME supplemented with 10% calf serum and antibiotics. Stock cultures were maintained in antibiotic free medium.\nHerpes simplex virus, type 2 (HSV-2) strain 333 was obtained from Dr. John Hughes of the Dept. of Medical Microbiology, College of Medicine, The Ohio State University. Stocks of HSV-2 were prepared in the human diploid embryonic lung cell line, MRC-5. Confluent MRC-5 monolayer cultures in T-75 plastic flasks were washed one time with Hank's and Balanced Salt solution (HBSS) and infected with 0.5 ml of HSV-2, strain 333 stock. Virus was adsorbed for 1 hour at 37° C. Then the culture was refed with 15 ml of DME supplemented with 1% (V/V) calf serum. Virus was harvested 48 hours later when cytopathology was complete. Cultures were frozen and thawed rapidly three times to release cell associated virus, clarified by centrifugation at 10,000×g for 15 minutes at 4° C., aliquoted into 5 ml lots and frozen at -70° C. One lot was taken for virus titration.\nHSV-2 was titrated by plaque assay in HEP-2 cells under a semi-solid methyl cellulose overlay. Tenfold serial dilutions of virus were prepared in HBSS and 0.3 ml aliquots of each dilution inoculated onto triplicate HEP-2 cell monolayers in 60 mm plastic petri dishes. Adsorption of virus was for 1 hour at 37° C. Plates were then overlayed with 5 ml of a 1:1 mixture of 2×DME supplemented with 2% (V/V) calf serum and 3% (W/V) methyl cellulose to give a final 1×DME supplemented with 1% calf serum and 1.5% methylcellulose. Infected plates were incubated at 37° C. in a humidified 10% CO2 atmosphere for 48 hours. Virus plaques were visualized by staining with crystal violet and counted under a dissecting microscope. Virus titers were calculated from the plaque numbers by averaging the plaque count and multiplying by 3.3 (0.3 ml plates).\nThe following procedure was employed to assay virucidal activity in various test samples. Compounds were received as a solution in DMSO and were serially diluted in HBSS as described for each experiment. For the test, 1 ml of each dilution was mixed with 1 ml of a stock virus suspension diluted to approximately 9×10^3 plaque forming units (P.F.U.)/ml. This test mixture was incubated at 25° C. for 30 minutes, then inoculated onto a cell culture (HEP-2) for plaque assay as described previously. Mock treated (virus plus HBSS) controls were included with each test. Any reduction of plaque titer by test compounds as compared to the mock treated control was indicative of virucidal activity.\nSamples from RP-HPLC fractionation of the CLOH, produced according to Example 2, as well as purified samples of palmitic, myristic and oleic acids and Vitamin D2, were tested for HSV-2 bioactivity. […] Pure oleic acid was not active in this assay, nor were palmitic and myristic acids and Vitamin D2. […]"}, "HSV-2 [4]": {"test_system": "HSV-2", "test": "Separate experiments: speed of virus inhibition by DHA"}}, "note": "Entries after “also recorded” stand apart in the source; their conditions may differ.", "data": [{"smiles": "CCC=CCC=CCC=CCC=CCC=CCC=CCCC(=O)O", "note": "[DHA, 4,7,10,13,16,19 Docosahexaenoic Acid]", "values": [{"measurement": "% Mortality", "setting": "HSV-2 [1]; DMSO & High DHA (10 mg/ml)", "value": 20, "unit": "%"}, {"measurement": "Day of Maximum % Morbidity", "setting": "HSV-2 [1]; DMSO & High DHA (10 mg/ml)", "value": 7, "unit": "days"}, {"measurement": "Maximum % Morbidity", "setting": "HSV-2 [1]; DMSO & High DHA (10 mg/ml)", "value": 40, "unit": "%"}, {"measurement": "Mean Day of Death", "setting": "HSV-2 [1]; DMSO & High DHA (10 mg/ml)", "value": 8.5, "unit": "days"}, {"measurement": "% Mortality", "setting": "HSV-2 [1]; DMSO & Low DHA (1 mg/ml)", "value": 30, "unit": "%"}, {"measurement": "Day of Maximum % Morbidity", "setting": "HSV-2 [1]; DMSO & Low DHA (1 mg/ml)", "value": 7, "unit": "days"}, {"measurement": "Maximum % Morbidity", "setting": "HSV-2 [1]; DMSO & Low DHA (1 mg/ml)", "value": 40, "unit": "%"}, {"measurement": "Mean Day of Death", "setting": "HSV-2 [1]; DMSO & Low DHA (1 mg/ml)", "value": 11.7, "unit": "days"}, {"measurement": "# Infected, Day 14", "setting": "HSV-2 [1]; High DHA 10 mg/ml in DMSO", "value": 4}, {"measurement": "# of Deaths, Day 14", "setting": "HSV-2 [1]; High DHA 10 mg/ml in DMSO", "value": 2}, {"measurement": "# Infected, Day 14", "setting": "HSV-2 [1]; High DHA 10 mg/ml in PEG", "value": 5}, {"measurement": "# of Deaths, Day 14", "setting": "HSV-2 [1]; High DHA 10 mg/ml in PEG", "value": 3}, {"measurement": "# Infected, Day 14", "setting": "HSV-2 [1]; Low DHA 1 mg/ml in DMSO", "value": 4}, {"measurement": "# of Deaths, Day 14", "setting": "HSV-2 [1]; Low DHA 1 mg/ml in DMSO", "value": 2}, {"measurement": "Max. Lesion Score", "setting": "HSV-2 [1]; Low DHA 1 mg/ml in PEG", "value": "±"}, {"measurement": "# Infected, Day 14", "setting": "HSV-2 [1]; Low DHA 1 mg/ml in PEG", "value": 1}, {"measurement": "# of Deaths, Day 14", "setting": "HSV-2 [1]; Low DHA 1 mg/ml in PEG", "value": 0}, {"measurement": "% Mortality", "setting": "HSV-2 [1]; Ointment & High DHA (10 mg/ml)", "value": 30, "unit": "%"}, {"measurement": "Day of Maximum % Morbidity", "setting": "HSV-2 [1]; Ointment & High DHA (10 mg/ml)", "value": 7, "unit": "days"}, {"measurement": "Maximum % Morbidity", "setting": "HSV-2 [1]; Ointment & High DHA (10 mg/ml)", "value": 50, "unit": "%"}, {"measurement": "Mean Day of Death", "setting": "HSV-2 [1]; Ointment & High DHA (10 mg/ml)", "value": 11.7, "unit": "days"}, {"measurement": "% Mortality", "setting": "HSV-2 [1]; Ointment & Low DHA (1 mg/ml)", "value": 0, "unit": "%"}, {"measurement": "Day of Maximum % Morbidity", "setting": "HSV-2 [1]; Ointment & Low DHA (1 mg/ml)", "value": 6, "unit": "days"}, {"measurement": "Maximum % Morbidity", "setting": "HSV-2 [1]; Ointment & Low DHA (1 mg/ml)", "value": 10, "unit": "%"}, {"measurement": "Mean Day of Death", "setting": "HSV-2 [1]; Ointment & Low DHA (1 mg/ml)", "value": "> 14", "unit": "days"}, {"measurement": "efficacy in mice in words", "setting": "HSV-2 [1]; topical, HSV-2 infected mice", "value": "effective virucidal activity against HSV-2, especially the low dose ointment preparation; also recorded: highly effective in comparison with ACV in reducing lesions and in reducing mortality rates in mice; also recorded: a low dose of DHA in the particular ointment vehicle used for test purposes appeared to have a higher activity than a high dose of the same material in the same vehicle"}, {"measurement": "solubility", "setting": "[2]", "value": "soluble"}, {"measurement": "MIC", "setting": "[3]; Human alphaherpesvirus 2, 0.5 h, Table 4 run, 30 min at 25° C., upper limit, dilutions to 1:12800, read-out: MIC (lowest concentration producing a 3-log reduction in virus titer)", "value": 0.47, "unit": "µg/mL"}, {"measurement": "plaque count", "setting": "[3]; dilution 1:10", "value": 0}, {"measurement": "titer", "setting": "[3]; dilution 1:10, control titer 4.5 × 10^3", "value": 0}, {"measurement": "plaque count", "setting": "[3]; dilution 1:100", "value": 0}, {"measurement": "titer", "setting": "[3]; dilution 1:100", "value": 0}, {"measurement": "titer", "setting": "[3]; dilution 1:400", "value": 0}, {"measurement": "plaque count", "setting": "[3]; dilution 1:400, TNTC = too numerous to count", "value": 0}, {"measurement": "titer", "setting": "[3]; dilution 1:800", "value": 0}, {"measurement": "plaque count", "setting": "[3]; dilution 1:800, TNTC = too numerous to count", "value": 0}, {"measurement": "titer", "setting": "[3]; dilution 1:1600", "value": 0}, {"measurement": "plaque count", "setting": "[3]; dilution 1:1600, TNTC = too numerous to count", "value": 0}, {"measurement": "titer", "setting": "[3]; dilution 1:3200", "value": 0}, {"measurement": "plaque count", "setting": "[3]; dilution 1:3200, TNTC = too numerous to count", "value": 0}, {"measurement": "titer", "setting": "[3]; dilution 1:6400", "value": 0}, {"measurement": "plaque count", "setting": "[3]; dilution 1:6400, TNTC = too numerous to count", "value": 0}, {"measurement": "titer", "setting": "[3]; dilution 1:12800", "value": 0}, {"measurement": "plaque count", "setting": "[3]; dilution 1:12800, TNTC = too numerous to count", "value": 0}, {"measurement": "virucidal activity against HSV-2 in words", "setting": "[3]; in vitro bioassay", "value": "potent and fast-acting virucides"}, {"measurement": "virus inhibited", "setting": "HSV-2 [4]; within 30 seconds of contact", "value": "more than 98%"}, {"measurement": "virus inhibited", "setting": "HSV-2 [4]; within 30 minutes of contact", "value": "> 99.99", "unit": "%"}]}]}
